Earlier results on 1 substance are cited in article PMC4907212, “Mucosal and blood-brain barrier transport kinetics of the plant N-alkylamide spilanthol using in vitro and in vivo models” (BMC Complementary and Alternative Medicine, 2016).

On the set-up of the data set: method as in PMID 19399718. The note with it: plasma, oral gavage in rats; cited from earlier work.

As for “dodeca-2E,4E,8E,10E/Z-tetraenoic acid isobutylamides”, the elimination half-life is 1.2 h.
